Data published in PubChem BioAssay AID1259407 (Chemical Carcinogenesis Research Information System (CCRIS), 2018).
Activity calls are given as the source filed them. The rule behind the calls is not given here.

System: CCRIS mutagenicity, Ames/micronucleus/aberration tests
Test: CCRIS mutagenicity studies
[1] = Test System: AMES SALMONELLA TYPHIMURIUM, Strain/Indicator: TA100, Metabolic Activation: NONE, Method: STANDARD PLATE
[2] = Test System: AMES SALMONELLA TYPHIMURIUM, Strain/Indicator: TA100, Metabolic Activation: RAT, LIVER, S-9, AROCLOR 1254, Method: STANDARD PLATE
[3] = Test System: MOUSE LYMPHOMA, Strain/Indicator: L5178Y (TK+/TK-), Metabolic Activation: NONE, Method: SUSPENSION/PLATE
[4] = Test System: MOUSE LYMPHOMA, Strain/Indicator: L5178Y (TK+/TK-), Metabolic Activation: RAT, LIVER, S-9, AROCLOR 1254, Method: SUSPENSION/PLATE

Measured: mutagenic call

Cc1nnc(NS(=O)(=O)c2ccc(N)cc2)s1
inactive: Test System: AMES SALMONELLA TYPHIMURIUM, Strain/Indicator: TA98, Metabolic Activation: HAMSTER, LIVER, S-9, AROCLOR 1254, Method: STANDARD PLATE inactive; negative | Test System: AMES SALMONELLA TYPHIMURIUM, Strain/Indicator: TA98, Metabolic Activation: NONE, Method: STANDARD PLATE inactive; negative | Test System: AMES SALMONELLA TYPHIMURIUM, Strain/Indicator: TA98, Metabolic Activation: RAT, LIVER, S-9, AROCLOR 1254, Method: STANDARD PLATE inactive; negative | Test System: AMES SALMONELLA TYPHIMURIUM, Strain/Indicator: TA100, Metabolic Activation: HAMSTER, LIVER, S-9, AROCLOR 1254, Method: STANDARD PLATE inactive; negative | [1] inactive; negative | [2] inactive; negative | Test System: AMES SALMONELLA TYPHIMURIUM, Strain/Indicator: TA1535, Metabolic Activation: HAMSTER, LIVER, S-9, AROCLOR 1254, Method: STANDARD PLATE inactive; negative | Test System: AMES SALMONELLA TYPHIMURIUM, Strain/Indicator: TA1535, Metabolic Activation: NONE, Method: STANDARD PLATE inactive; negative | Test System: AMES SALMONELLA TYPHIMURIUM, Strain/Indicator: TA1535, Metabolic Activation: RAT, LIVER, S-9, AROCLOR 1254, Method: STANDARD PLATE inactive; negative | Test System: AMES SALMONELLA TYPHIMURIUM, Strain/Indicator: TA1537, Metabolic Activation: HAMSTER, LIVER, S-9, AROCLOR 1254, Method: STANDARD PLATE inactive; negative | Test System: AMES SALMONELLA TYPHIMURIUM, Strain/Indicator: TA1537, Metabolic Activation: NONE, Method: STANDARD PLATE inactive; negative | Test System: AMES SALMONELLA TYPHIMURIUM, Strain/Indicator: TA1537, Metabolic Activation: RAT, LIVER, S-9, AROCLOR 1254, Method: STANDARD PLATE inactive; negative | Test System: AMES SALMONELLA TYPHIMURIUM, Strain/Indicator: TA1538, Metabolic Activation: HAMSTER, LIVER, S-9, AROCLOR 1254, Method: STANDARD PLATE inactive; negative | Test System: AMES SALMONELLA TYPHIMURIUM, Strain/Indicator: TA1538, Metabolic Activation: NONE, Method: STANDARD PLATE inactive; negative | Test System: AMES SALMONELLA TYPHIMURIUM, Strain/Indicator: TA1538, Metabolic Activation: RAT, LIVER, S-9, AROCLOR 1254, Method: STANDARD PLATE inactive; negative | [3] inactive; negative. reevaluation of results: negative | [4] inactive; negative. reevaluation of results: equivocal

O=C1c2ccccc2-c2ccc3ccc4ccccc4c3c21
inactive: [2] inactive; negative

CCc1c2ccccc2c(CC)c2c1ccc1ccccc12
inactive: Test System: AMES SALMONELLA TYPHIMURIUM, Strain/Indicator: TA98, Method: STANDARD PLATE inactive; negative | Test System: AMES SALMONELLA TYPHIMURIUM, Strain/Indicator: TA100, Metabolic Activation: RAT, LIVER, S-9, PHENOBARBITAL, Method: STANDARD PLATE inactive; negative | Test System: AMES SALMONELLA TYPHIMURIUM, Strain/Indicator: TA100, Method: STANDARD PLATE inactive; negative

C=C(C)C1CC=C(C=O)CC1 (stereo unspecified)
inactive: End Point: IN VIVO MICRONUCLEUS, Test System: BONE MARROW POLYCHROMATIC ERYTHROCYTES, Species: MOUSE, Strain/Sex: DDY/MALE, Route: IP inactive; negative

O=C1OCC(Br)=C1Br
active: [1] active; positive

CN1C(=O)CN=C(c2ccccc2F)c2cc([N+](=O)[O-])ccc21
active: [1] active; positive | [2] active; positive

Nc1ncnc2c1nc(Cl)n2[C@@H]1O[C@@H]2COP(=O)(O)O[C@H]2[C@H]1O
inactive: [3] inactive; negative. reevaluation of results: negative | [4] inactive; negative. reevaluation of results: negative
active: End Point: IN VIVO CHROMOSOMAL ABERRATIONS, Test System: BONE MARROW, Species: MOUSE, Strain/Sex: BALB/C, Route: IP active; positive (structural and ploidy changes) | End Point: IN VIVO MICRONUCLEUS, Test System: BONE MARROW, Species: MOUSE, Strain/Sex: BALB/C, Route: IP active; positive

CC1CCc2c(N3CCC(O)CC3)c(F)cc3c(=O)c(C(=O)O)cn1c23 (stereo unspecified)
inactive: Test System: AMES SALMONELLA TYPHIMURIUM, Strain/Indicator: TA98, Metabolic Activation: NONE, Method: PREINCUBATION inactive; negative | Test System: AMES SALMONELLA TYPHIMURIUM, Strain/Indicator: TA98, Metabolic Activation: RAT, LIVER, S-9, NADPH, Method: PREINCUBATION inactive; negative | Test System: AMES SALMONELLA TYPHIMURIUM, Strain/Indicator: TA100, Metabolic Activation: NONE, Method: PREINCUBATION inactive; negative | Test System: AMES SALMONELLA TYPHIMURIUM, Strain/Indicator: TA100, Metabolic Activation: RAT, LIVER, S-9, NADPH, Method: PREINCUBATION inactive; negative | Test System: AMES SALMONELLA TYPHIMURIUM, Strain/Indicator: TA1535, Metabolic Activation: NONE, Method: PREINCUBATION inactive; negative | Test System: AMES SALMONELLA TYPHIMURIUM, Strain/Indicator: TA1535, Metabolic Activation: RAT, LIVER, S-9, NADPH, Method: PREINCUBATION inactive; negative | Test System: AMES SALMONELLA TYPHIMURIUM, Strain/Indicator: TA1537, Metabolic Activation: NONE, Method: PREINCUBATION inactive; negative | Test System: AMES SALMONELLA TYPHIMURIUM, Strain/Indicator: TA1537, Metabolic Activation: RAT, LIVER, S-9, NADPH, Method: PREINCUBATION inactive; negative | Test System: AMES SALMONELLA TYPHIMURIUM, Strain/Indicator: TA1538, Metabolic Activation: NONE, Method: PREINCUBATION inactive; negative | Test System: AMES SALMONELLA TYPHIMURIUM, Strain/Indicator: TA1538, Metabolic Activation: RAT, LIVER, S-9, NADPH, Method: PREINCUBATION inactive; negative | Test System: E. COLI, Strain/Indicator: WP2 UVRA, Metabolic Activation: RAT, LIVER, S-9, NADPH, Method: PREINCUBATION inactive; negative | Test System: E.COLI, Strain/Indicator: WP2 UVRA, Metabolic Activation: NONE, Method: PREINCUBATION inactive; negative
